Results: EPA's ToxRefDB 2

How the values were obtained:
rat [1] = conditions: Prenatal developmental toxicity study, sprague dawley, Oral, Gavage/Intubation, dose end: 20 GD
rat [2] = conditions: Multigenerational reproductive toxicity study, sprague dawley, Oral, Gavage/Intubation, dose end: 1 generation
rat [3] = conditions: Subchronic oral toxicity in rodents, sprague dawley, Gavage/Intubation, dose end: 90 day, group: systemic
rat [4] = conditions: Subchronic oral toxicity in rodents, fischer, Feed, dose end: 45 day, group: systemic, systemic / in life observation / body weight / body weight gain
rat [5] = conditions: Carcinogenicity; fischer; Oral; Feed; dose end: 78 week; group: systemic; systemic / in life observation / body weight / body weight gain + systemic / pathology microscopic / peritoneum / neoplasm nos + systemic / …
mouse [6] = conditions: Prenatal developmental toxicity study, cd1, Oral, Gavage/Intubation, dose end: 15 GD
mouse [7] = conditions: Carcinogenicity, b6c3f1, Oral, Feed, dose end: 78 week, group: systemic
mouse [8] = conditions: Subchronic oral toxicity in rodents, b6c3f1, Feed, dose end: 45 day, group: systemic, systemic / in life observation / mortality / mortality
[9] = group: developmental, systemic / in life observation / body weight / fetal weight
[10] = group: maternal, systemic / in life observation / body weight / body weight + systemic / in life observation / body weight / body weight gain + systemic / in…
[11] = group: offspring, systemic / in life observation / body weight / offspring (pup) weight
[12] = group: parental, systemic / in life observation / body weight / body weight gain + systemic / in life observation / clinical signs / fur (altered appearance…
[13] = systemic / clinical chemistry / peroxisomal beta-oxidation analysis / peroxisomal beta-oxidation analysis + systemic / organ weight / liver…
[14] = systemic / hematology / neutrophils / neutrophils
[15] = group: developmental, developmental / developmental malformation / bone / [other] + developmental / developmental malformation / general / [other] + systemic / in…
[16] = group: maternal, reproductive / reproductive performance / implantations / implantations + reproductive / reproductive performance / resorptions / …
[17] = group: maternal, systemic / pathology gross / spleen / enlarged
[18] = systemic / in life observation / body weight / body weight
[19] = systemic / in life observation / body weight / body weight + systemic / in life observation / mortality / mortality

Structure (SMILES): O=C([O-])C(F)(F)C(F)(F)C(F)(F)C(F)(F)C(F)(F)F.[Na+] [Sodium perfluorohexanoate]
- LEL (rat [1]; [9]): 500 mg/kg/day
- LOAEL (rat [1]; [9]): > 500 mg/kg/day
- NEL (rat [1]; [9]): 100 mg/kg/day
- NOAEL (rat [1]; [9]): ≥ 500 mg/kg/day
- LEL (rat [1]; [10]): 500 mg/kg/day
- LOAEL (rat [1]; [10]): > 500 mg/kg/day
- NEL (rat [1]; [10]): 100 mg/kg/day
- NOAEL (rat [1]; [10]): ≥ 500 mg/kg/day
- LEL (rat [2]; [11]): 500 mg/kg/day
- LOAEL (rat [2]; [11]): > 500 mg/kg/day
- NEL (rat [2]; [11]): 100 mg/kg/day
- NOAEL (rat [2]; [11]): ≥ 500 mg/kg/day
- LEL (rat [2]; group: parental, systemic / in life observation / body weight / body weight gain): 100 mg/kg/day
- LOAEL (rat [2]; [12]): > 500 mg/kg/day
- NEL (rat [2]; [12]): 20 mg/kg/day
- NOAEL (rat [2]; [12]): ≥ 500 mg/kg/day
- LOAEL (rat [3]; [13]): > 500 mg/kg/day
- NOAEL (rat [3]; [13]): ≥ 500 mg/kg/day
- LEL (rat [3]; [14]): 20 mg/kg/day
- NEL (rat [3]; [14]): < 20 mg/kg/day

Structure (SMILES): Nc1ccc(S(=O)(=O)c2ccc(N)cc2)cc1 [Dapsone]
- LEL (rat [4]): 60 mg/kg/day
- LOAEL (rat [4]): 60 mg/kg/day
- NEL (rat [4]): < 60 mg/kg/day
- NOAEL (rat [4]): < 60 mg/kg/day
- LEL (rat [5]): 30 mg/kg/day
- LOAEL (rat [5]): > 60 mg/kg/day
- NEL (rat [5]): < 30 mg/kg/day
- NOAEL (rat [5]): ≥ 60 mg/kg/day
- LEL (mouse [6]; [15]): 200 mg/kg/day
- LOAEL (mouse [6]; [15]): > 200 mg/kg/day
- NEL (mouse [6]; [15]): 100 mg/kg/day
- NOAEL (mouse [6]; [15]): ≥ 200 mg/kg/day
- LOAEL (mouse [6]; [16]): > 200 mg/kg/day
- NOAEL (mouse [6]; [16]): ≥ 200 mg/kg/day
- LEL (mouse [6]; [17]): 50 mg/kg/day
- NEL (mouse [6]; [17]): < 50 mg/kg/day
- LOAEL (mouse [7]; [18]): 75 mg/kg/day
- NOAEL (mouse [7]; [18]): < 75 mg/kg/day
- LEL (mouse [7]; [19]): 75 mg/kg/day
- NEL (mouse [7]; [19]): < 75 mg/kg/day
- LEL (mouse [8]): 300 mg/kg/day
- LOAEL (mouse [8]): > 7500 mg/kg/day
- NEL (mouse [8]): < 300 mg/kg/day
- NOAEL (mouse [8]): ≥ 7500 mg/kg/day
